# Reference: patent US11498896B2 (The Broad Institute, Inc., priority 2014, dated 2022)
# Like-named read-outs stand apart in the source and are kept apart here.
# Experiment: Pharmacokinetic and brain distribution study in mice
# Format: in vivo
# Conditions: single intraperitoneal dose 30 mg/kg, male C57BL/6 mice
# Procedure: Pharmacokinetic Studies on Mice Brains
# Twelve male C57BL/6 mice were weighed and administered intraperitoneally with a dose of test compound (Examples 90, 157, 125) solution formulation. The dosing volume administered for the intraperitoneal route was at 10 mL/kg. Blood samples (approximately […]) were collected from retro-orbital plexus of each mouse under light isoflurane anesthesia at 0.08, 0.5, 1, 2, 4, and 8 hr. Following the collection of blood, plasma was also harvested by centrifugation and stored at −70° C. until analysis. After collection of plasma, the animals were euthanized and brain samples were isolated at 0.08, 0.5, 1, 2, 4, and 8 hr. Tissue samples (brain) were homogenized using ice-cold phosphate buffer saline (pH 7.4) and homogenates were stored below −70° C. until analysis. Total homogenate volume was three times the tissue weight. Concentrations of test compound in mouse plasma and brain samples were determined by LC-MS/MS method.
# Identical extraction procedures were used for the plasma/brain homogenate study samples and the spiked plasma calibration standards: A 25 μL sample of either study sample (plasma/brain) or spiked calibration standard was added to individual pre-labeled micro-centrifuge tubes. A volume of 100 μL of IS (antipyrine, 500 ng/mL) prepared in acetonitrile was then added to the micro-centrifuge tubes, except in a sample used as a negative control where only acetonitrile was added and vortexed for 5 minutes. Samples were centrifuged for 20 minutes at the speed of 4000 rpm at 4° C. Following centrifugation, 100 μL of the supernatant was sampled from each centrifuge tube and transferred into insert vials. These vials remained within the auto-sampler for the LC/MS/MS analysis. Standards used for calibration were prepared by spiking 10 μL of the test compound in 190 μL of control (used as a negative control) mouse plasma/brain homogenate.
# The plasma and brain concentration-time data of test compounds was provided for data analysis. The plasma and brain concentration-time data was then used for the pharmacokinetic analysis. Non-Compartmental-Analysis module in Phoenix® WinNonlin® (Version 6.3) was used to assess the pharmacokinetic parameters. Peak plasma concentrations (Cmax) and time for the peak plasma concentrations (Tmax) were the observed values. The areas under the concentration time curve (AUClast and AUCinf) were calculated by linear trapezoidal rule. The terminal elimination rate constant, ke was determined by regression analysis of the linear terminal portion of the log plasma concentration-time curve.
# Illustrative results are presented in FIG. 2, the pharmacokinetic parameters are as follow: […]
structure (smiles),measurement,setting,value
"CC1(Oc2ccc(Cl)cc2)CCN(CCOc2ccccc2C(F)(F)F)CC1 [Compound 90, 4-(4-Chlorophenoxy)-4-methyl-1-(2-(2-(trifluoromethyl)phenoxy)ethyl) piperidine]",Brain AUC,brain,34.2 µM·h
same,Brain Cmax,brain,7230 nM
same,half-life,"mouse, ip, brain, read-out: Brain T1/2 (converted)",4.2 h
same,AUC,"mouse, ip, plasma",4.4 µM·h
same,Cmax,"mouse, ip, plasma",1440 nM
same,half-life,"mouse, ip, plasma, read-out: Plasma T1/2 (converted)",4.7 h
